Laboratory results reported in patent US11739162B2, “Side chain modified peptoids useful as structure-stabilizing coatings for biomaterials” (Brookhaven Science Associates, LLC, priority 2019, dated 2023).

Legend:
[1] = system: 15-bp dsDNA; experiment: Real-time SYBR Green I (SG) fluorescence assay of duplex DNA (dsDNA); type: binding; details: dsDNA/peptoid complexes
Protocol: A15-bp dsDNA was designed with a sequence of 5′-[…]-3′ (SEQ ID NO: 124) with a complementary sequence of 5′-[…]-3′ (SEQ ID NO: 125). The dsDNA (500 μM) was formed in PBS (1×) buffer and cooled from 70° C. to room temperature over 11 h. Next, the dsDNA (100 nM) solution was mixed with different peptoid solutions at varied concentrations in PBS overnight at room temperature. Prior to measuring fluorescence, SG (1×) was added to the dsDNA/peptoid mixtures for 2 h at room temperature. The fluorescence signal was recorded from 37° C. to 85° C. at a step of 0.03° C./sec by LightCycler 480. The concentrations of only peptoids in solution were the same as those in the N/P of 8, which were 3.43 μM for PE1, PE3, PE4, PE5, and 1.85 μM for PE2, respectively.

[2] = system: octahedra-shaped DNA origamis (OCs); experiment: Negative-stained TEM imaging of peptoid-coated OCs; type: physicochemical; details: N/P 0.5, 0.25, 0.1; TAE 12.5 mM MgCl2
Protocol: Preparation of peptoid-coated OCs. The synthesized peptoids were dissolved in deionized water at a concentration of 10 mM and stored at 4° C.
Negative-stained TEM imaging. […] In brief, […] of the peptoid-coated OC (5-10 nM) solution was dropped on a carbon film for 1-3 min and the residual liquid was removed with a piece of filter paper. After that, the grid was washed with […] of deionized water followed by staining with […] of 2 wt % uranyl acetate for 15 sec. The excess liquid was removed with filter papers. TEM imaging was performed on a JEOL 1400 TEM with an acceleration voltage of 120 kV.

[3] = system: deoxyribonuclease I (DN); experiment: Nuclease degradation assays (AGE, TEM, DLS); details: DN 15 μg/mL, 30 min, 37° C., N/P 0.5
Protocol: The samples were incubated at 37° C. for 30 min at 650 rpm on a thermal cycler (Eppendorf) and characterized using AGE and negative-stained TEM imaging.

[4] = system: trypsin; experiment: Fluorescence assay for tryptic digestion of BSA; type: biochemical; details: trypsin 50 nM, 37° C.
Protocol: First, NHS-fluorescein (240 μM) and NHS-PEG-azide (60 μM) was mixed with BSA (10 μM) in PBS (1×) buffer for 3 h at room temperature. The solution was purified 8 times with PBS using a 50 kDa filter and centrifuged at 3000 rcf and at 4° C. Next, the DBCO-modified single-stranded DNA (ssHy, 5′-[…]/3DBCO/, 250 μM) (SEQ ID NO: 1) was mixed with the BSA solution (10 μM) overnight (˜12 h) at 4° C. The solution was purified 8 times with PBS using a 50 kDa filter and centrifuged at 3000 rcf at 4° C. Finally, the surface-modified BSA (200 nM) was added to the OCs (40 nM) and the solution was cooled down from 45° C. to room temperature over a time course of 60 h. The solution was purified 2 times with TAE (1×) buffer containing 12.5 mM MgCl2 using a 100 kDa filter and centrifuged at 400 rcf and at 4° C.
(1) The fluorescein-modified BSA (80 nM) solution without OCs was incubated at 37° C. in the presence or absence of trypsin (50 nM) overnight ˜12 h prior to fluorescence measurement. Fluorescence spectra were measured with excitation and emission wavelengths of 490 nm and 510-750 nm, respectively and a step size of 2 nm. […] The fluorescence kinetics were measured at λex and λem of 490 nm and 525 nm, respectively and time interval of 3 min. Fluorescence spectra were measured after 15 h at excitation and emission wavelengths of 490 nm and 510-800 nm, respectively and a step size of 2 nm.

| Compound | relative performance in raising the Tm of the dsDNA (ranking) [1] | morphology / aggregation of peptoid-coated OCs (TEM) [2] | OC structure after incubation with DN (TEM) [3] | fluorescence enhancement of fluorescein labeled BSA in the presence of trypsin [4] [%] |
| --- | --- | --- | --- | --- |
| COCCOCCOCCN(CC(N)=O)C(=O)CN(CCOC)C(=O)CN(CCOCCOCCOC)C(=O)CN(CCN)C(=O)CN(CCOCCOCCOC)C(=O)CN(CCOC)C(=O)CN(CCOCCOCCOC)C(=O)CN(CCN)C(=O)CN(CCOCCOCCOC)C(=O)CN(CCOC)C(=O)CN(CCOCCOCCOC)C(=O)CN(CCN)C(=O)CN(CCOCCOCCOC)C(=O)CN(CCOC)C(=O)CN(CCOCCOCCOC)C(=O)CN(CCN)C(=O)CN(CCOCCOCCOC)C(=O)CN(CCOC)C(=O)CN(CCOCCOCCOC)C(=O)CN(CCN)C(=O)CN(CCOCCOCCOC)C(=O)CN(CCOC)C(=O)CN(CCOCCOCCOC)C(=O)CNCCN [PE3, Nae6-Nte12 brush] | Tm (dsDNA/PE3)>Tm (dsDNA/PE5) | less aggregation than PE1 | some extents of capability to preserve the origami structure |  |
| COCCOCCOCCN(CC(N)=O)C(=O)CN(CCOCCOCCOC)C(=O)CN(CCOCCOCCOC)C(=O)CN(CCOCCOCCOC)C(=O)CN(CCOCCOCCOC)C(=O)CN(CCOCCOCCOC)C(=O)CN(CCN)C(=O)CN(CCN)C(=O)CN(CCN)C(=O)CN(CCN)C(=O)CN(CCN)C(=O)CNCCN [PE4, Nae6-Nte6 block] | Tm (dsDNA/PE2)>Tm (dsDNA/PE1)>Tm (dsDNA/PE4) |  | some extents of capability to preserve the origami structure |  |
| fluorescein labeled BSA: bovine serum albumin modified with fluorescein, trypsin substrate [reference compound] |  |  |  | 85 |
